For 5 compounds, inhibition, Activity and viability results are on record in ChEMBL document CHEMBL4011585, “Identification of dibenzyl imidazolidine and triazole acetamide derivatives through virtual screening targeting amyloid beta aggregation and neurotoxicity in PC12 cells” (Eur J Med Chem, 2017).

SMILES strings stand for the structures. Calls of active or inactive are those of the source. The calls are words filed in the database; no cut-off is given here.

Data set [1] has as its target Amyloid-beta precursor protein (Homo sapiens) (UniProt P05067). Kind of data set: Inhibition of recombinant human amyloid beta (1 to 42) aggregation at 100 uM measured every 10 mins for 48 hrs by thioflavin T fluorescence assay.
Data set [2] concerns PC-12. Kind of data set: Cytotoxicity against rat PC12 cells assessed as reduction in cell viability up to 100 uM after 48 hrs by MTT assay. In kind it is cell-based. The settings on record: pc-12, 48 h.
Data set [3] concerns the target Amyloid-beta precursor protein (Homo sapiens) (UniProt P05067). Description: Induction of morphological changes in recombinant human amyloid beta (1 to 42) assessed as smoother fibrils at 100 uM measured after 48 hrs by transmission electron microscopic method.
Data set [4] shares this target. Description: Induction of morphological changes in recombinant human amyloid beta (1 to 42) assessed as less dense fibril at 100 uM measured after 48 hrs by transmission electron microscopic method.
For data set [5] the target is unchanged. Kind of data set: Induction of morphological changes in recombinant human amyloid beta (1 to 42) assessed as loosely attached fibrils at 100 uM measured after 48 hrs by transmission electron microscopic method.
The target is the same in data set [6]. Description: Induction of morphological changes in recombinant human amyloid beta (1 to 42) fibrils assessed as thinner fibril at 100 uM measured after 48 hrs by transmission electron microscopic method.
The target is the same in data set [7]. Kind of data set: Induction of morphological changes in recombinant human amyloid beta (1 to 42) fibrils assessed as shorter fibril at 100 uM measured after 48 hrs by transmission electron microscopic method.
Data set [8] has as its system PC-12. Kind of data set: Neuroprotective activity against amyloid beta (1 to 42)-induced cell death in rat PC12 cells assessed as cell viability at 100 uM measured after 48 hrs by MTS assay relative to control. The class given is functional. For orientation: Tetrazolium dyes change colour on reduction, which living cells bring about.
Data set [9] concerns the target Amyloid-beta precursor protein (Homo sapiens) (UniProt P05067). Kind of data set: Induction of morphological changes in recombinant human amyloid beta (1 to 42) assessed as appearance of uneven fibrils at 100 uM measured after 48 hrs by transmission electron microscopic method.
Data set [10] concerns PC-12. Description: Cytotoxicity against rat PC12 cells assessed as reduction in cell viability at 100 uM after 48 hrs by MTT assay relative to control. The class given is cell-based. The note with it: pc-12, 48 h.
For data set [11], the system named is PC-12. Kind of data set: Cytotoxicity against rat PC12 cells assessed as reduction in cell viability at 10 uM after 48 hrs by MTT assay relative to control. The class given is cell-based. The settings on record: pc-12, 48 h.
In data set [12] the test system is PC-12. Kind of data set: Cytotoxicity against rat PC12 cells assessed as reduction in cell viability after 48 hrs by MTT assay. The class given is cell-based. The note with it: pc-12, 48 h.
The target of data set [13] is Amyloid-beta precursor protein (Homo sapiens) (UniProt P05067). Description: Induction of morphological changes in recombinant human amyloid beta (1 to 42) assessed as appearance of punctate at 100 uM measured after 48 hrs by transmission electron microscopic method.
Data set [14] has the same target. Kind of data set: Induction of morphological changes in recombinant human amyloid beta (1 to 42) assessed as appearance of small mesh-like aggregates at 100 uM measured after 48 hrs by transmission electron microscopic method.

Sequence of Amyloid-beta precursor protein (Homo sapiens) (P05067 whole entry): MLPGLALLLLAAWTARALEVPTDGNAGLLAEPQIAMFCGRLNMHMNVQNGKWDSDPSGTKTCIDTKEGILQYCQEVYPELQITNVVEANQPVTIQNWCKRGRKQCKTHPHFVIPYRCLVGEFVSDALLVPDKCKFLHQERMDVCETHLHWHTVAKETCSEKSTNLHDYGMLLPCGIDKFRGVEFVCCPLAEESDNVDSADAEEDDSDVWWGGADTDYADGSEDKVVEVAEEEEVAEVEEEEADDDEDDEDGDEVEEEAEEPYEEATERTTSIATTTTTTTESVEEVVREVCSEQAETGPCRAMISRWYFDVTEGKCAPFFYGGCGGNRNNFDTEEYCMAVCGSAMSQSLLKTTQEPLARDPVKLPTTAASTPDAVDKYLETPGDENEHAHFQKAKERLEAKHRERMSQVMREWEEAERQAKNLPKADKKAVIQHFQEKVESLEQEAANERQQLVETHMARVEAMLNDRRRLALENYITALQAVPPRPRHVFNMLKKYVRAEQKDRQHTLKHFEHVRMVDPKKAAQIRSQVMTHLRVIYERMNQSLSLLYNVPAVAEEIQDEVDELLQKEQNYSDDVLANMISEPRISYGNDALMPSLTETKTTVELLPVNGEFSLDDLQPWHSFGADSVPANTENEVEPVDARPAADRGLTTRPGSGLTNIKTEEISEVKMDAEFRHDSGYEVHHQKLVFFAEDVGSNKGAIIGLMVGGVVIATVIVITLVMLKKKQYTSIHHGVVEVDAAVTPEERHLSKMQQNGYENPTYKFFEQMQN

Take `c1ccc(COc2cccc(C3N(Cc4ccccc4)CCN3Cc3ccccc3)c2)cc1`: in data set [1], the inhibition result was “inactive”. For the same compound, in the data set with PC-12 [2], the Activity entry is “Non-Toxic”. Moreover, the outcome (in data set [3]; in data set [4]; in data set [5]; in data set [6]; in [7]; in the data set on PC-12 [8]) was Active.

For `COc1cc(C2N(Cc3ccccc3)CCN2Cc2ccccc2)ccc1OCc1ccccc1`, in [1], the inhibition entry was “Active”. For the same compound, in the data set on PC-12 [2], the Activity entry was “Non-Toxic”. Moreover, the outcome (in data set [4]; in [5]; in [6]; in [9]; in [7]; in the data set with PC-12 [8]) was Active.

Turning to `Cc1cccc(CNC(=O)[C@@H](C)C2CCN(C(=O)c3ccc4oc(-c5ccccc5)nc4c3)CC2)c1`, the Activity in the data set with PC-12 [10] is recorded as 87%; in the data set with PC-12 [11], 35%; with PC-12 [12] it was “Dose-dependent effect”. Moreover, the inhibition entry in data set [1] is “inactive”. Further, the result in [4] was inactive.

For `Cn1c(SCC(=O)Nc2ccccc2)nnc1-c1ccc(N)cc1`, in the data set on PC-12 [10], the Activity lay in the range of 20 to 25%. The inhibition entry in data set [1] is “Active”. Also, the outcome in data set [4], in data set [6], in data set [9], in data set [13] and in data set [14] was Active. The viability at 100 µM with PC-12 [8] (PC-12, 48 h, read-out: Activity) fell in the range of 73 to 78%.

As to `Cc1ccc(NC(=O)CSc2nnc(-c3ccc(N)cc3)n2C)cc1`, the Activity in the data set with PC-12 [10] is recorded as 60%. For the same compound, the inhibition entry in data set [1] is “Active”. Further, the outcome in data set [4], in [6], in data set [9], in data set [13] and in data set [14] was Active.
